Test: in vitro
Details: human, hek293t cells

Compound	viability at 48 h, 25 µM
CC(Cl)C(=O)NCCCc1c[nH]c2ccc(F)cc12 (stereo not drawn) [7-J09, 2-chloro-N-[3-(5-fluoro-1H-indol-3-yl)propyl]propanamide]	96%
O=C(CCl)NC1CCCN(Cc2ccccc2)C1=O (stereo not drawn) [7-J10, N-(1-benzyl-2-oxopiperidin-3-yl)-2-chloroacetamide]	55.1%
CC(Cl)C(=O)NCC1CCN(C)c2ccccc21 (stereo not drawn) [7-J11, 2-chloro-N-[(1-methyl-1,2,3,4-tetrahydroquinolin-4-yl)methyl]propanamide]	79.9%
CN(C)C(=O)C(CNC(=O)CCl)c1ccccc1 (stereo not drawn) [7-J12, 3-(2-chloroacetamido)-N,N-dimethyl-2-phenylpropanamide]	1.26%
Cc1ccc(NC(=O)C2(CNC(=O)C(C)Cl)CCCC2)cc1C (stereo not drawn) [7-J13, 1-[(2-chloropropanamido)methyl]-N-(3,4-dimethylphenyl)cyclopentane-1-carboxamide]	108%
O=C(CCl)N(CCCO)C1CCCc2ccccc21 (stereo not drawn) [7-J14, 2-chloro-N-(3-hydroxypropyl)-N-(1,2,3,4-tetrahydronaphthalen-1-yl)acetamide]	0.693%
COc1ccc2nnc(CNC(=O)C(C)Cl)n2n1 (stereo not drawn) [7-J15, 2-chloro-N-({6-methoxy-[1,2,4]triazolo[4,3-b]pyridazin-3-yl}methyl)propanamide]	90.2%
CN(C(=O)CCl)C(c1ccc(Cl)cc1)C(F)(F)F (stereo not drawn) [7-J16, 2-chloro-N-[1-(4-chlorophenyl)-2,2,2-trifluoroethyl]-N-methylacetamide]	0.718%
Cc1cc2ncn(CC(NC(=O)C(C)Cl)C3CC3)c2cc1C (stereo not drawn) [7-J17, 2-chloro-N-[1-cyclopropyl-2-(5,6-dimethyl-1H-1,3-benzodiazol-1-yl)ethyl]propanamide]	84.7%
O=C(CCl)NCCc1cccc2c1Oc1ccccc1O2 [7-J18, 2-chloro-N-[2-(oxanthren-1-yl)ethyl]acetamide]	0.958%
CC(Cl)C(=O)NCc1cc(C(F)(F)F)cs1 (stereo not drawn) [7-J19, 2-chloro-N-{[4-(trifluoromethyl)thiophen-2-yl]methyl}propanamide]	97.1%
O=C(CCl)N(CC1=CCCOC1)Cc1ccccc1 [7-J20, N-benzyl-2-chloro-N-[(5,6-dihydro-2H-pyran-3-yl)methyl]acetamide]	0.586%
O=C(CCl)NCc1cc(O)ccc1Cl [7-J21, 2-chloro-N-[(2-chloro-5-hydroxyphenyl)methyl]acetamide]	0.249%
CC(C)C(NC(=O)CCl)c1ccc(Cl)cc1F (stereo not drawn) [7-J22, 2-chloro-N-[1-(4-chloro-2-fluorophenyl)-2-methylpropyl]acetamide]	0.584%
CC(Cl)C(=O)NCc1ncn(Cc2cccc(F)c2)n1 (stereo not drawn) [7-K03, 2-chloro-N-({1-[(3-fluorophenyl)methyl]-1H-1,2,4-triazol-3-yl}methyl)propanamide]	111%
CC(Cl)C(=O)N1CCC(n2ncc3ccccc32)C1 (stereo not drawn) [7-K04, 2-chloro-1-[3-(1H-indazol-1-yl)pyrrolidin-1-yl]propan-1-one]	92.4%
CC(Cl)C(=O)NCc1csc(-c2ccco2)n1 (stereo not drawn) [7-K05, 2-chloro-N-{[2-(furan-2-yl)-1,3-thiazol-4-yl]methyl}propanamide]	90.6%
CC(Cl)C(=O)N1CCN(C(=O)C(F)(F)F)C2(CCCCC2)C1 (stereo not drawn) [7-K06, 2-chloro-1-[1-(2,2,2-trifluoroacetyl)-1,4-diazaspiro[5.5]undecan-4-yl]propan-1-one]	74%
CC(Cl)C(=O)N1CCc2sccc2C1c1cccs1 (stereo not drawn) [7-K07, 2-chloro-1-[4-(thiophen-2-yl)-4H,5H,6H,7H-thieno[3,2-c]pyridin-5-yl]propan-1-one]	87.1%
CC(Cl)C(=O)NC1CCN(c2nnnn2C)CC1 (stereo not drawn) [7-K08, 2-chloro-N-[1-(1-methyl-1H-1,2,3,4-tetrazol-5-yl)piperidin-4-yl]propanamide]	82.1%
CC(Cl)C(=O)N1Cc2cnn(C)c2C1 (stereo not drawn) [7-K09, 2-chloro-1-{1-methyl-1H,4H,5H,6H-pyrrolo[3,4-c]pyrazol-5-yl}propan-1-one]	87%
CC(Cl)C(=O)NC1CCc2nc(-c3cc(F)ccc3F)cn2C1 (stereo not drawn) [7-K10, 2-chloro-N-[2-(2,5-difluorophenyl)-5H,6H,7H,8H-imidazo[1,2-a]pyridin-6-yl]propanamide]	77.5%
CC(Cl)C(=O)N1CCN(C2=NS(=O)(=O)c3ccccc32)CC1 (stereo not drawn) [7-K11, 3-[4-(2-chloropropanoyl)piperazin-1-yl]-1lambda6,2-benzothiazole-1,1-dione]	94.9%
CC(Cl)C(=O)N1CCC(c2nc(C3CC3)no2)(C(F)(F)F)C1 (stereo not drawn) [7-K12, 2-chloro-1-[3-(3-cyclopropyl-1,2,4-oxadiazol-5-yl)-3-(trifluoromethyl)pyrrolidin-1-yl]propan-1-one]	83.5%
CC(Cl)C(=O)NCC1CCCCN1C(=O)C(F)(F)F (stereo not drawn) [7-K13, 2-chloro-N-{[1-(2,2,2-trifluoroacetyl)piperidin-2-yl]methyl}propanamide]	83.8%
CC(Cl)C(=O)NC1(C(=O)Nc2ccccc2)CC1 (stereo not drawn) [7-K14, 1-(2-chloropropanamido)-N-phenylcyclopropane-1-carboxamide]	52%

Compound	viability at 48 h, 25 µM
CC(Cl)C(=O)NCc1ccccc1S(=O)(=O)N1CCOCC1 (stereo not drawn) [7-K15, 2-chloro-N-{[2-(morpholine-4-sulfonyl)phenyl]methyl}propanamide]	86%
CC(Cl)C(=O)N(C)C[C@@H]1C[C@H](F)CN1c1ccnc(N(C)C)n1 (stereo partly drawn) [7-K16, 2-chloro-N-{[(2S,4S)-1-[2-(dimethylamino)pyrimidin-4-yl]-4-fluoropyrrolidin-2-yl]methyl}-N-methylpropanamide]	79.5%
CC(Cl)C(=O)N1CCn2c(nn(CC(=O)N(C)C)c2=O)C1 (stereo not drawn) [7-K17, 2-[7-(2-chloropropanoyl)-3-oxo-2H,3H,5H,6H,7H,8H-[1,2,4]triazolo[4,3-a]pyrazin-2-yl]-N,N-dimethylacetamide]	83.1%
CC(Cl)C(=O)NCc1nnc(-c2ccncc2F)s1 (stereo not drawn) [7-K18, 2-chloro-N-{[5-(3-fluoropyridin-4-yl)-1,3,4-thiadiazol-2-yl]methyl}propanamide]	78.4%
CC(Cl)C(=O)NC1CCCN(c2cnn(C)c2)C1 (stereo not drawn) [7-K19, 2-chloro-N-[1-(1-methyl-1H-pyrazol-4-yl)piperidin-3-yl]propanamide]	75.7%
CC(Cl)C(=O)NC1(C(=O)N(C)C)CC(F)(F)C1 (stereo not drawn) [7-K20, 1-(2-chloropropanamido)-3,3-difluoro-N,N-dimethylcyclobutane-1-carboxamide]	83.7%
CC(Cl)C(=O)NC(c1cc(Cl)ccc1Cl)C1CCOC1 (stereo not drawn) [7-K21, 2-chloro-N-[(2,5-dichlorophenyl)(oxolan-3-yl)methyl]propanamide]	87.9%
CC(Cl)C(=O)N1CCN(c2nc3ccccc3o2)C(C)C1 (stereo not drawn) [7-K22, 1-[4-(1,3-benzoxazol-2-yl)-3-methylpiperazin-1-yl]-2-chloropropan-1-one]	76.1%
O=C(CCl)NC1CCN(C(=O)COc2ccccc2)C1 (stereo not drawn) [7-L03, 2-chloro-N-[1-(2-phenoxyacetyl)pyrrolidin-3-yl]acetamide]	0.757%
CN1c2ccccc2C(NC(=O)CCl)CS1(=O)=O (stereo not drawn) [7-L04, 2-chloro-N-(1-methyl-2,2-dioxo-3,4-dihydro-1H-2lambda6,1-benzothiazin-4-yl)acetamide]	0.505%
CC(Cl)C(=O)NCCS(=O)(=O)Nc1ccccn1 (stereo not drawn) [7-L05, 2-chloro-N-{2-[(pyridin-2-yl)sulfamoyl]ethyl}propanamide]	103%
O=C(CCl)NCC1CCN(C(=O)c2ccccc2)CC1 [7-L06, N-[(1-benzoylpiperidin-4-yl)methyl]-2-chloroacetamide]	0.868%
CC(Cl)C(=O)N1CCC(NS(=O)(=O)c2cccs2)CC1 (stereo not drawn) [7-L07, N-[1-(2-chloropropanoyl)piperidin-4-yl]thiophene-2-sulfonamide]	99.7%
CN(CC(=O)NC1CCC(O)CC1)C(=O)CCl (stereo not drawn) [7-L08, 2-chloro-N-{[(4-hydroxycyclohexyl)carbamoyl]methyl}-N-methylacetamide]	0.707%
CC(Cl)C(=O)NCCc1ccc[nH]1 (stereo not drawn) [7-L09, 2-chloro-N-[2-(1H-pyrrol-2-yl)ethyl]propanamide]	91.9%
CCC(c1cc(Cl)cc(Cl)c1)N(C)C(=O)CCl (stereo not drawn) [7-L10, 2-chloro-N-[1-(3,5-dichlorophenyl)propyl]-N-methylacetamide]	0.495%
CC(Cl)C(=O)N1CCCC1c1cccc2c1OCCO2 (stereo not drawn) [7-L11, 2-chloro-1-[2-(2,3-dihydro-1,4-benzodioxin-5-yl)pyrrolidin-1-yl]propan-1-one]	89.6%
CC1CCCN1C(=O)CNC(=O)CCl (stereo not drawn) [7-L12, 2-chloro-N-[2-(2-methylpyrrolidin-1-yl)-2-oxoethyl]acetamide]	83.6%
CC(Cl)C(=O)N1CCC(C(=O)c2cccs2)CC1 (stereo not drawn) [7-L13, 2-chloro-1-[4-(thiophene-2-carbonyl)piperidin-1-yl]propan-1-one]	86.7%
C[C@H](NC(=O)CCl)C(=O)N1CCCCC1 [7-L14, 2-chloro-N-[(2S)-1-oxo-1-(piperidin-1-yl)propan-2-yl]acetamide]	70.1%
CC(Cl)C(=O)N1CCCN(c2ccc(-c3ccccc3)nn2)CC1 (stereo not drawn) [7-L15, 2-chloro-1-[4-(6-phenylpyridazin-3-yl)-1,4-diazepan-1-yl]propan-1-one]	76.7%
O=C(CCl)NC1Cc2ccccc2N(C(=O)C(F)(F)F)C1 (stereo not drawn) [7-L16, 2-chloro-N-[1-(2,2,2-trifluoroacetyl)-1,2,3,4-tetrahydroquinolin-3-yl]acetamide]	0.649%
CC(Cl)C(=O)N(Cc1ccco1)C1CCN(C)CC1 (stereo not drawn) [7-L17, 2-chloro-N-[(furan-2-yl)methyl]-N-(1-methylpiperidin-4-yl)propanamide]	101%
COc1ccccc1[C@H]1C[C@H](NC(=O)CCl)C1 [7-L18, 2-chloro-N-[(1r,3r)-3-(2-methoxyphenyl)cyclobutyl]acetamide]	0.928%
CC(Cl)C(=O)NCc1nc(C2CC2)n[nH]1 (stereo not drawn) [7-L19, 2-chloro-N-[(3-cyclopropyl-1H-1,2,4-triazol-5-yl)methyl]propanamide]	91.3%

From publication PMC11995724, “Antibiotic target discovery by integrated phenotypic and activity-based profiling of electrophilic fragments” (Cell chemical biology, 2025)
